Source: ChEMBL document CHEMBL4270549, “Influence of the C-5 substitution in polysubstituted pyrimidines on inhibition of prostaglandin E2 production” (Eur J Med Chem, 2018)
Calls of active or inactive are those of the source. The calls are words filed in the database; no cut-off is given here.

Columns and labels:
Mus musculus = species on record: Mus musculus; assay: Inhibition of LPS-induced PGE2 production in C57BL6 mouse peritoneal cells at 50 uM measured at 5 hrs time interval by ELISA; type: functional
[1] = Cytotoxicity against C57BL6 mouse peritoneal cells assessed as cell viability measured at 5 hrs time interval by LDH release assay (reference value: 98.9 +/- 1.6%); type: cell-based; conditions: read-out: Activity
[2] = Inhibition of LPS-induced PGE2 production in C57BL6 mouse peritoneal cells measured at 5 hrs time interval by ELISA; type: functional; conditions: C57BL6, 5 h

Row | IC50 [2] | Compound | inhibition (Mus musculus) | viability at 5 h [1]
1 | – | Cc1c(Cl)nc(N)nc1Cl | inactive | –
2 | – | CCCCc1c(Cl)nc(N)nc1-c1ccccc1 | Active | –
3 | – | CCCCc1c(-c2ccc(C)cc2)nc(N)nc1-c1ccc(OC)cc1 | Active | –
4 | – | COc1ccc(-c2nc(N)nc(-c3ccc(C)cc3)c2C)cc1 | Active | –
5 | 33 nM | Cc1ccc(-c2cc(-c3ccc(C)cc3)nc(N)n2)cc1 | Active | 103%
6 | 2460 nM | CCCCc1c(-c2ccccc2)nc(N)nc1-c1ccc(C)cc1 | Active | 102%
7 | 119 nM | COc1ccc(-c2cc(-c3ccc(OC)cc3)nc(N)n2)cc1 | Active | 102%
8 | – | Cc1c(Cl)nc(N)nc1-c1ccccc1 | Active | –
9 | – | COc1ccc(-c2nc(N)nc(-c3ccc(OC)cc3)c2C)cc1 | Active | –
10 | 1860 nM | CCCCc1c(Cl)nc(N)nc1-c1ccc(C)cc1 | Active | 101%
11 | 3400 nM | CCCCc1c(-c2ccccc2)nc(N)nc1-c1ccc(OC)cc1 | Active | 102%
12 | – | COc1ccc(-c2cc(-c3ccc(C)cc3)nc(N)n2)cc1 | Active | –
13 | 3710 nM | CCCCc1c(-c2ccc(OC)cc2)nc(N)nc1-c1ccc(OC)cc1 | Active | 99.1%
14 | 2320 nM | Cc1ccc(-c2cc(Cl)nc(N)n2)cc1 | Active | 103%
15 | – | CCCCc1c(-c2ccccc2)nc(N)nc1-c1ccccc1 | Active | –
16 | – | COc1ccc(-c2nc(N)nc(Cl)c2C)cc1 | Active | –

Row | IC50 [2] | Compound | inhibition (Mus musculus) | viability at 5 h [1]
17 | 5 nM | COc1ccc2c(c1)c(CC(=O)O)c(C)n2C(=O)c1ccc(Cl)cc1 [INDOMETHACIN] | – | –
18 | – | COc1ccc(-c2nc(N)nc(-c3ccccc3)c2C)cc1 | Active | –
19 | 3 nM | Nc1nc(-c2ccccc2)cc(-c2ccccc2)n1 | Active | 97.4%
20 | 5340 nM | CCCCc1c(Cl)nc(N)nc1Cl | Active | 99.8%
21 | – | Cc1ccc(-c2nc(N)nc(-c3ccccc3)c2C)cc1 | Active | –
22 | – | Cc1ccc(-c2nc(N)nc(Cl)c2C)cc1 | Active | –
23 | – | CCCCc1c(-c2ccc(C)cc2)nc(N)nc1-c1ccc(C)cc1 | Active | –
24 | 2790 nM | COc1ccc(-c2cc(Cl)nc(N)n2)cc1 | Active | 103%
25 | 9 nM | Cc1ccc(-c2cc(-c3ccccc3)nc(N)n2)cc1 | Active | 103%
26 | – | Cc1ccc(-c2nc(N)nc(-c3ccc(C)cc3)c2C)cc1 | Active | –
27 | – | Nc1nc(Cl)cc(-c2ccccc2)n1 | Active | –
28 | 9 nM | COc1ccc(-c2cc(-c3ccccc3)nc(N)n2)cc1 | Active | 99.9%
29 | – | Cc1c(-c2ccccc2)nc(N)nc1-c1ccccc1 | Active | –
30 | – | Nc1nc(Cl)cc(Cl)n1 | inactive | –
31 | 4080 nM | CC(=O)Oc1ccccc1C(=O)O [ASPIRIN] | – | –
32 | 2160 nM | CCCCc1c(Cl)nc(N)nc1-c1ccc(OC)cc1 | Active | 96.6%
